Data on three molecules can be found in patent US20060252732A1, “Blood vessel-growth promoter” (priority 2003, published 2006).

For test [1], the system named is human umbilical vein endothelial cells (HUVEC). Description: Proliferation test on human umbilical vein endothelial cells (HUVEC). Type of test: cell-based. As to the method:
Proliferation Test on Human Umbilical Vein Endothelial Cells (HUVEC) […] After the culture broth was filtered by suction, to a minimum essential medium (MEM) broth containing 1% FBS, acetylsalicylic acid was added at a concentration (0, 0.055, 0.55, 5.5, 55, 555 μM, respectively) and each mixture was cultivated. After 0, 24 and 48 hours the number of alive cells was counted. As a positive control vascular endothelial growth factor (VEGF; Vascular Endothelial Growth Factor-A) (20 ng/mL) was used. In this measurement, Cell Counting Kit-8 (Dojin Chemical Co.) was used.

The subject of test [2] is human vascular endothelial cells (HUVEC) and fibroblast. The experiment in a line: Measurement of neo-vascularization ability (tube formation, CD31 staining, Angiogenesis Kit KZ-1000). Type of test: cell-based. As to the method: Measurement of Neo-Vascularization Ability
The tube formation by a mixture-system of human vascular endothelial cells (HUVEC) and fibroblast was investigated by CD31 staining kit (Kurabo Ind.) to be visualized, and be made score by an analytical soft (NIH Image). A broth containing acetylsalicylic (0.5, 5.5, 55 μM; changed every three days) was added to neo-vascularization kit (Angiogenesis Kit KZ-1000; Kurabo Ind.) prepared by mixing human vascular endothelial cells and fibroblast, and the resulting broth was cultivated for 11 days. Then immuno histochemical study was performed by using CD31 staining kit, and the color photo was taken. The picture was analyzed using NIH Image and the amount of the formed tubes was scored as an area to evaluate. As a positive control, vascula endothelial growth factor (VEGF; 10 ng/mL) and as a negative control sramine (100 μM) were used, respectively.

The test system of test [3] is Wister female rats. Description: Neo-vascularization test using rats (subcutaneous urethane sponge, carmine dye). Type of test: in vivo, rat. Here is the method:
Neo-Vascularization Test Using Rats
Wister female rats (7 weeks old; n=6) were anesthetized with ether, and a urethane sponge (diameter: 8 mm) previously permeating a drug was inserted in subcutaneous tissue of right shoulder. As a test drug, acetylsalicylic acid (2 mg) and as a positive control retinoid (0.5 mg) were administered, respectively. Four days later after insertion of the sponge, 5% gelatin solution containing 5% carmine dye kept at 37° C. was administered under ether anesthesia in tail vein of the rat. After injection, the rats in suspended animation were left at 4° C. for 2 hours, and the gelatin solution containing carmine dye distributed in blood vessel was solidified. After butcher of the rats, the sponge with granulation tissue was extracted and the dye therein was extracted. Absorbancy at 530 nm was measured to calculate the amount of the carmine dye.

Regarding `CC(=O)Oc1ccccc1C(=O)O` [Acetylsalicylic acid, acetylsalicylic acid], the “Change of the number of HUVEC, Relative absorvancy” value (from here on “Change … Relative absorvancy”) in test [1] (0.055 μM drug, after 0 hour) is listed as 1.102; in test [1] (0.055 μM drug, after 24 hours), 1.252; in test [1] (0.055 μM drug, after 48 hours) it was 1.303; in test [1] (0.55 μM drug, after 0 hour), 1.144; in test [1] (0.55 μM drug, after 24 hours) it was 2.001; in test [1] (0.55 μM drug, after 48 hours), 1.709. Also, the “Change … Relative absorvancy” value is on record as 1.084 in test [1] (5.5 μM drug, after 0 hour); 1.811 in test [1] (5.5 μM drug, after 24 hours); 1.575 in test [1] (5.5 μM drug, after 48 hours); 1.107 in test [1] (55 μM drug, after 0 hour); 1.754 in test [1] (55 μM drug, after 24 hours); 1.475 in test [1] (55 μM drug, after 48 hours). Also, the “Change … Relative absorvancy” value came to 1.017 in test [1] (555 μM drug, after 0 hour); 1.044 in test [1] (555 μM drug, after 24 hours); 0.699 in test [1] (555 μM drug, after 48 hours). In addition, the “Proliferation promoting activity of HUVEC” value in test [1] (added in more than 0.055 μM) was “proliferation promoting activity of HUVEC was confirmed”. Also, the “Proliferation promoting effect on HUVEC” value in test [1] (added in more than 555 μM) is “proliferation promoting effect was not recognized or was even depressed”. Further, in test [2], the Tube-formation promoting activity result is reported as “showed tube-formation promoting activity”. Besides, the “Neo-vascularization ability, Relative area After 11 days” value in test [2] (5.5 μM) worked out at 1.17; in test [2] (55 μM) it was 1.08. Further, the “Neo-vascularization promoting activity in vivo” value in test [3] is on record as “neo-vascularization promoting activity was shown”. The “Amount of carmine dye” value in test [3] (2 mg in sponge, subcutaneous, 4 days after insertion) was 16.0 ± 4.2 µg/mL.

As to `Cc1ccc(C(=O)Nc2ccc(S(=O)(=O)O)c3cc(S(=O)(=O)O)cc(S(=O)(=O)O)c23)cc1NC(=O)c1cccc(NC(=O)Nc2cccc(C(=O)Nc3cc(C(=O)Nc4ccc(S(=O)(=O)O)c5cc(S(=O)(=O)O)cc(S(=O)(=O)O)c45)ccc3C)c2)c1` [Sramine, sramine], in test [2] (100 μM (negative control)), the “Neo-vascularization ability, Relative area After 11 days” value came out at 0.04.

As for VEGF, the “Change … Relative absorvancy” value in test [1] (20 ng/mL (positive control), after 0 hour) was determined as 1.003; in test [1] (20 ng/mL (positive control), after 24 hours), 2.041; in test [1] (20 ng/mL (positive control), after 48 hours), 1.889. The “Neo-vascularization ability, Relative area After 11 days” value in test [2] (10 ng/mL (positive control)) is listed as 1.71.
